Data from US20240132461A1, “FLAVONE DEAZA SPERMIDINE ANALOGUES AND THEIR USE TREATING CANCER” (FLORATEK PHARMA S.A., priority 2021, published 2024).

How the values were obtained:
MOLT-16 = test: Cell viability assay, leukaemia cell line MOLT-16; format: cell-based; conditions: Homo sapiens; MOLT-16 leukaemia cell line
Procedure: (§1) Antitumor activity of the compounds and doxorubicin as a positive control was assessed by using the CellTiter-Blue Cell Viability Assay (Promega, #G8082) or CellTiter-Glow® Luminescent Cell Viability assay (Promega # G7572) according to the manufacturer's instructions. The compounds were tested at 5 or 6 concentrations in half-log increments (highest concentration 30 μM-100 μM) in duplicate or triplicate well conditions.
(§2) Tumor cells were grown at 37° C. in a humidified atmosphere with 5% CO2 in RPMI 1640 or DMEM medium, supplemented with 10% (v/v) fetal calf serum and 50 μg/ml gentamicin for up to 20 passages, and were passaged once or twice weekly. Cells were harvested using TrypLE or PBS buffer containing 1 mM EDTA, and the percentage of viable cells is determined using a CASY Model TT cell counter (OMNI Life Science). Cells were harvested from exponential phase cultures, counted and plated in 96 well flat-bottom microtiter plates at a cell density depending on the cell line's growth rate (4,000-20,000 cells/well depending on the cell line's growth rate, up to 60,000 for hematological cancer cell lines) in RPMI 1640 or DMEM medium supplemented with 10% (v/v) fetal calf serum and 50 μg/ml gentamicin (140 μl/well). […] Viability of cells was quantified by the CellTiter-Blue® cell viability assay (Promega G8081) or CellTiter-Glow® Luminescent Cell Viability assay (Promega # G7572). […]

[1] = test system: U87MG human glioblastoma cells; test: In vivo tumour inhibition of xenograft human glioblastoma U87MG; conditions: 10 mg/kg/inj i.p. qod
NALM-6 = test: Cell viability assay, leukaemia cell line NALM-6; format: cell-based; conditions: Homo sapiens; NALM-6 leukaemia cell line
Procedure: as §1, §2

NCI-H1299 = test: Cell viability assay, non-small cell lung carcinoma cell line NCI-H1299; format: cell-based; conditions: Homo sapiens
Procedure: as §1
(§3) Tumor cells were grown at 37° C. in a humidified atmosphere with 5% CO2 in RPMI 1640 or DMEM medium, supplemented with 10% (v/v) fetal calf serum and 50 μg/ml gentamicin for up to 20 passages, and were passaged once or twice weekly. Cells were harvested using TrypLE or PBS buffer containing 1 mM EDTA, and the percentage of viable cells is determined using a CASY Model TT cell counter (OMNI Life Science). Cells were harvested from exponential phase cultures, counted and plated in 96 well flat-bottom microtiter plates at a cell density depending on the cell line's growth rate (4,000-20,000 cells/well depending on the cell line's growth rate, up to 60,000 for hematological cancer cell lines) in RPMI 1640 or DMEM medium supplemented with 10% (v/v) fetal calf serum and 50 μg/ml gentamicin (140 μl/well). Cultures were incubated at 37° C. and 5% CO2 in a humidified atmosphere. After 24 h, 10 μl of test compounds or control medium are added, and left on the cells for another 72 h. Compounds were serially diluted in DMSO, transferred in cell culture medium, and added to the assay plates. The DMSO concentration was kept constant at <0.3% v/v across the assay plate. Viability of cells was quantified by the CellTiter-Blue® cell viability assay (Promega G8081) or CellTiter-Glow® Luminescent Cell Viability assay (Promega # G7572). Fluorescence (FU) was measured by using the EnSpire® multimode plate reader (Perkin Elmer) (excitation λ=570 nm, emission λ=600 nm) or luminescent detection of ATP in viable cells was used as parameter for proliferation. Luminescence was measured with the microplate luminometer (Promega or Perkin Elmer).
(§4) Sigmoidal concentration-response curves were fitted to the data points (test-versus-control, T/C values) obtained for each tumor model using 4 parameter non-linear curve fit (Charles River DRS Datawarehouse Software) or with GraphPad prism 5.02 software. IC50 values are reported as absolute IC50 values, being the concentration of test compound at the intersection of the concentration-response curves with T/C=50%

K562 = test: Cell viability assay, leukaemia cell line K562; format: cell-based; conditions: Homo sapiens
Procedure: as §1, §2

SC6 = test: PDX cytotoxicity assay, small cell lung carcinoma PDX SC6; format: cell-based
Procedure: (§5) PDX-derived cell cultures were obtained from tumors explanted from mice and isolated by mechanical and enzymatic dissociation. […] Cells were harvested and seeded in 96-wells plates at a density of 1.25 to 5×10^3 cells/well for cytotoxicity assays. Cells were incubated 48 h at 37° C. prior to addition of test molecules and vehicle (DMSO, 0.1%) at desired final concentrations. Cell viability was assessed before drugs' addition (T0) and 5 days after test molecules addition by measuring ATP cell content using CellTiter-Glo® Luminescent Cell Viability Assay (Promega) according to the manufacturer's instructions. Luciferase activity was measured on a luminometer (PerkinElmer® EnVision™). Each concentration of compounds was tested in triplicate.
(§6) Viability was calculated as a percentage of ATP value compared to vehicle treated controls.
(§7) For PDX primary cell cultures, the tumour tissue was washed with PBS containing antibiotic-antimycotic and non-tumour tissue and necrotic tumour tissues were separated. The tumour tissue was transferred to a new dish and cut into 1˜2 mm^3 fragments, resuspended in RPMI-1640 medium and centrifuged at 1,200 rpm for 6 min at room temperature. The pelleted material was resuspended with 15 mL of Tumour Cell Digestion Solution and incubated at 37° C. for 1 hour with agitation. […]

lung carcinoma cell = test: Cell viability assay, lung carcinoma cell lines (summary); format: cell-based; conditions: summary of Tables 7A-E; read-out: IC50s, lung carcinoma cell growth
Procedure: as §1, §3, §4

brain cancer cell = test: Cell viability assay, brain cancer cell lines (summary); format: cell-based; conditions: summary of Tables 3A-D; read-out: IC50s, brain cancer cell growth
Procedure: as §1, §3, §4

leukaemia cell = test: Cell viability assay, leukaemia cell lines (summary); format: cell-based; conditions: summary of Table 6A; read-out: IC50, leukaemia cell growth
Procedure: as §1, §2

[2] = In vivo maximum tolerated dose in NOG mice
Procedure: In order to evaluate the general toxicity of selected SND compounds in an animal model, a maximum tolerated dose (MTD) in NOG mice has been undertaken. Three mice per group were treated daily or every other day over 8 days at various doses between 5 mg/kg and 10 mg/kg. Administration of the compounds was i.p. A stock solution of the compounds (40 mg/ml in DMSO) was prepared and frozen at −20° C. in aliquots for each treatment. […] Body weights were measured before each treatment. Mice were further observed for 1 week after the last treatment.

SNARK = biological target: T1, SNARK (Homo sapiens, UniProt Q9H093); test: KINOMEscan competition binding assay, SNARK
T1 construct: purchased Eurofins (KINOMEscan assay service); host or cells: E. coli BL21-derived (T7 phage) or HEK-293
From the text: The Hill Slope was set to −1.

BR-05-0014E = test: PDX cytotoxicity assay, breast PDX BR-05-0014E; format: cell-based
Procedure: as §5, §6, §7

ES-06-0122 = test: PDX cytotoxicity assay, esophagus PDX ES-06-0122; format: cell-based
Procedure: as §5, §6, §7

SU-DHL-4 = test: Cell viability assay, lymphoma cell line SU-DHL-4; format: cell-based; conditions: Homo sapiens; SU-DHL-4 lymphoma cell line
Procedure: as §1, §2

T1 sequence (Q9H093 whole entry): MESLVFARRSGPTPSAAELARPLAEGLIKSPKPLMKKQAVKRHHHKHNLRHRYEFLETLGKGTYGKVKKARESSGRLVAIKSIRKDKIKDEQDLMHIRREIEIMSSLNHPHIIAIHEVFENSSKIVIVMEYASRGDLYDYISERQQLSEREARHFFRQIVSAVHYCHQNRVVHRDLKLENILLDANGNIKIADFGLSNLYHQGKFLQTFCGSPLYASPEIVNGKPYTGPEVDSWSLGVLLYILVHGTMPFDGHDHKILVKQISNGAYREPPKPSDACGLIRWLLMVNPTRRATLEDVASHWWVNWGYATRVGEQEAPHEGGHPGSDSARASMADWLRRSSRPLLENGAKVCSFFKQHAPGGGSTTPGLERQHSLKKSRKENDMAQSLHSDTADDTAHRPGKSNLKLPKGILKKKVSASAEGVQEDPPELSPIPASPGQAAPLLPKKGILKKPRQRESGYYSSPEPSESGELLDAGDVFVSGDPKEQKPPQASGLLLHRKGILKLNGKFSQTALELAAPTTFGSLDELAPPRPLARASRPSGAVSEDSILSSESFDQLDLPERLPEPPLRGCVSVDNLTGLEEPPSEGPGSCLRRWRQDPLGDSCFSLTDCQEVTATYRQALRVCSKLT

With COc1c(O)ccc2c(=O)cc(-c3ccc(CNCCCCNCCCN)cc3)oc12 [SND164] the IC50 (MOLT-16) was 4.36 µM, the body weight loss ([1]; U87MG xenograft mice) was “no significant body weight loss” and the “death during the study” value ([1]; U87MG xenograft mice) was “no death”. The “tolerability of the treatment” value ([1]; U87MG xenograft mice) was “well tolerated”, the “Optimum T/C, day 26” value ([1]; glioblastoma U87MG CDX s.c. in nude mice, 10 injections, ***P < 0.001 vs vehicle) was 54*** and the IC50 (NALM-6) was 4.45 µM. The IC50 (NCI-H1299) was 1.25 µM, the IC50 (K562) was 3.48 µM and the IC50 (SC6) was 3.64 µM. The IC50 (lung carcinoma cell) was under 20 µM, the IC50 (brain cancer cell) was under 10 µM and the IC50 (leukaemia cell) was under 10 µM. The “tolerability at the highest dose administered” value ([2]; 8-10 mg/kg i.p., daily or every other day over 8 days) was “well tolerated”, the MTD at 8 days ([2]; mouse, in vivo, ip, repeated i.p. administration, MTD not reached, read-out: maximum tolerated dose (MTD), estimated) was over 10 mg/kg and the Kd (SNARK) was 0.9 µM. It also gave an IC50 (BR-05-0014E) of 13.3 µM, an IC50 (ES-06-0122) of 5.7 µM and an IC50 (SU-DHL-4) of 3.3 µM.
